Data as given in PMC11126801 (The Journal of Biological Chemistry, 2024).
Blank lines part the entries; values can stand above or below the molecule they belong to.

Experiments:
HCN3 [1] = biological target: T1, HCN3 (Homo sapiens, UniProt Q9P1Z3); assay: whole-cell patch clamp of HCN3 currents in transfected HeLa cells; type: cell-based; set-up: human HCN3 (WT) expressed in HeLa cells
T1 sequence (Q9P1Z3 1-774): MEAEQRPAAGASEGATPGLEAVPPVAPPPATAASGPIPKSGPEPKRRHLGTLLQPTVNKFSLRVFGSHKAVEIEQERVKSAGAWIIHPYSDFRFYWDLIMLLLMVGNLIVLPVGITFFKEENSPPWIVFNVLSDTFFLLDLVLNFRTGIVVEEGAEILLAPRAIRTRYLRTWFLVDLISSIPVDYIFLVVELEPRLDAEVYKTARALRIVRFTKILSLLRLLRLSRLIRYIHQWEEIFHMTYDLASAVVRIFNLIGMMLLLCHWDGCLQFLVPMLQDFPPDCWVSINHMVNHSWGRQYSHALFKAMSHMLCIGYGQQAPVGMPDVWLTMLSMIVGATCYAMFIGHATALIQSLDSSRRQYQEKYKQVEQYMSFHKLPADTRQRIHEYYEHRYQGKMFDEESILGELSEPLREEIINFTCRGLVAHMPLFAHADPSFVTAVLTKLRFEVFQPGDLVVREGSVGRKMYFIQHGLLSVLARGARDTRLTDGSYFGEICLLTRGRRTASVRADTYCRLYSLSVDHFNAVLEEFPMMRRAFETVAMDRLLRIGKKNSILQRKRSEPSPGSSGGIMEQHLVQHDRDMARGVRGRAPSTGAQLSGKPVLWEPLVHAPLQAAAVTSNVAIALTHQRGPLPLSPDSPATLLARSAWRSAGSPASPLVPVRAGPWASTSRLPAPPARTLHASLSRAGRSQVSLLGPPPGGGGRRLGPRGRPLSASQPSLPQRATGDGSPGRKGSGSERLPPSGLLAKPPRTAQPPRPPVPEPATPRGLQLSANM

HCN3 [2] = biological target: T1, HCN3; assay: cryo-EM structure of the apo channel ([…] Å) with CHS density; IC50 by whole-cell patch clamp; type: cell-based
[3] = biological target: the molecule itself; assay: cryo-EM structure; single-particle cryo-EM of MBP-HCN3 in 0.1% digitonin, 300 mM KCl, 2 mM DTT, 20 mM Tris pH 8.0; ligand-free sample and sample with 5 mM cAMP; final refinement in C4 symmetry

Molecule: CC(C)CCC[C@@H](C)[C@H]1CC[C@H]2[C@@H]3CC=C4C[C@@H](O)CC[C@]4(C)[C@H]3CC[C@]12C [cholesterol]
IC50 (HCN3 [1]): 480 µM

IC50 (HCN3 [2]): 1450 µM
Molecule: CC(C)CCC[C@@H](C)[C@H]1CC[C@H]2[C@@H]3CC=C4C[C@@H](OC(=O)CCC(=O)O)CC[C@]4(C)[C@H]3CC[C@]12C [cholesteryl hemisuccinate]

B1: full-length wild-type human HCN3 with its N terminus fused to maltose-binding protein (MBP) (natural protein, UniProt Q9P1Z3 1-774, looked up)
chain: MEAEQRPAAGASEGATPGLEAVPPVAPPPATAASGPIPKSGPEPKRRHLGTLLQPTVNKFSLRVFGSHKAVEIEQERVKSAGAWIIHPYSDFRFYWDLIMLLLMVGNLIVLPVGITFFKEENSPPWIVFNVLSDTFFLLDLVLNFRTGIVVEEGAEILLAPRAIRTRYLRTWFLVDLISSIPVDYIFLVVELEPRLDAEVYKTARALRIVRFTKILSLLRLLRLSRLIRYIHQWEEIFHMTYDLASAVVRIFNLIGMMLLLCHWDGCLQFLVPMLQDFPPDCWVSINHMVNHSWGRQYSHALFKAMSHMLCIGYGQQAPVGMPDVWLTMLSMIVGATCYAMFIGHATALIQSLDSSRRQYQEKYKQVEQYMSFHKLPADTRQRIHEYYEHRYQGKMFDEESILGELSEPLREEIINFTCRGLVAHMPLFAHADPSFVTAVLTKLRFEVFQPGDLVVREGSVGRKMYFIQHGLLSVLARGARDTRLTDGSYFGEICLLTRGRRTASVRADTYCRLYSLSVDHFNAVLEEFPMMRRAFETVAMDRLLRIGKKNSILQRKRSEPSPGSSGGIMEQHLVQHDRDMARGVRGRAPSTGAQLSGKPVLWEPLVHAPLQAAAVTSNVAIALTHQRGPLPLSPDSPATLLARSAWRSAGSPASPLVPVRAGPWASTSRLPAPPARTLHASLSRAGRSQVSLLGPPPGGGGRRLGPRGRPLSASQPSLPQRATGDGSPGRKGSGSERLPPSGLLAKPPRTAQPPRPPVPEPATPRGLQLSANM
notes: the tag was not cleaved for the structures; Modelled residues: 50-151, 156-191, 210-476, 484-543 (apo); also 477-483 with cAMP; also called HCN3 channel; apo-HCN3; source: HEK293S cells, BacMam transduction, purified (MBP beads, Superose 6 SEC, digitonin); not shown: MBP, N-terminal, kept
stoichiometry N [3]: 4
